Experimental data as given in ChEMBL document CHEMBL2424532, “Investigation of an F-18 oxytocin receptor selective ligand via PET imaging” (Bioorg Med Chem Lett, 2013).

What was measured:
Vasopressin V1b receptor = target: T1, Vasopressin V1b receptor (Homo sapiens, UniProt P47901); experiment: Binding affinity to human V1BR by competitive binding assay
T1 sequence (P47901 whole entry): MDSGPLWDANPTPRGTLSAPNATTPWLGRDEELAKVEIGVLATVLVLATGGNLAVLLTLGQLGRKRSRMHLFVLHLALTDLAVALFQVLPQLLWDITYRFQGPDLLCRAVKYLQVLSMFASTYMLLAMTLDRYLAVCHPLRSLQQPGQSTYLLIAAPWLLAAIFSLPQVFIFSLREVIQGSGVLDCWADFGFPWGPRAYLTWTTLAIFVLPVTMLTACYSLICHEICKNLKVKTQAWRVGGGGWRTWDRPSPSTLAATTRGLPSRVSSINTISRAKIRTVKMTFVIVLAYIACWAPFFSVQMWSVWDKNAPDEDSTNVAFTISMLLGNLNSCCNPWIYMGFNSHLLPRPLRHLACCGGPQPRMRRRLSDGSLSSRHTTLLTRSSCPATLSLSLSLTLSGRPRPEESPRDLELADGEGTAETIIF

[1] = target: 5-hydroxytryptamine receptor 6 (Homo sapiens, UniProt P50406); experiment: Binding affinity to human 5HT6 receptor by competitive binding assay
Sequence of 5-hydroxytryptamine receptor 6 (P50406 whole entry): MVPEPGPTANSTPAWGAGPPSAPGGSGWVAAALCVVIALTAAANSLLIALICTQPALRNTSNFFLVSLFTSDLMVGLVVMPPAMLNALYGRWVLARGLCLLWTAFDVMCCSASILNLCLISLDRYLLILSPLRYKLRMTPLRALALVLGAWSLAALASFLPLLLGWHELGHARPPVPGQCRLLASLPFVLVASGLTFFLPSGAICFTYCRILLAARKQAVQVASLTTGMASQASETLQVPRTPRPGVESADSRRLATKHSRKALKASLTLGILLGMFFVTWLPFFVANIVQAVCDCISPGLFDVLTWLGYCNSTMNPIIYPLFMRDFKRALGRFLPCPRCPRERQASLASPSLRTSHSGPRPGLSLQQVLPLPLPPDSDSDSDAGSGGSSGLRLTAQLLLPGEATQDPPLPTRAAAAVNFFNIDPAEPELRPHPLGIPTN

[2] = target: T2, Alpha-1A adrenergic receptor (Homo sapiens, UniProt P35348); experiment: Binding affinity to human adrenergic alpha-1A receptor by competitive binding assay
T2 sequence (P35348 whole entry): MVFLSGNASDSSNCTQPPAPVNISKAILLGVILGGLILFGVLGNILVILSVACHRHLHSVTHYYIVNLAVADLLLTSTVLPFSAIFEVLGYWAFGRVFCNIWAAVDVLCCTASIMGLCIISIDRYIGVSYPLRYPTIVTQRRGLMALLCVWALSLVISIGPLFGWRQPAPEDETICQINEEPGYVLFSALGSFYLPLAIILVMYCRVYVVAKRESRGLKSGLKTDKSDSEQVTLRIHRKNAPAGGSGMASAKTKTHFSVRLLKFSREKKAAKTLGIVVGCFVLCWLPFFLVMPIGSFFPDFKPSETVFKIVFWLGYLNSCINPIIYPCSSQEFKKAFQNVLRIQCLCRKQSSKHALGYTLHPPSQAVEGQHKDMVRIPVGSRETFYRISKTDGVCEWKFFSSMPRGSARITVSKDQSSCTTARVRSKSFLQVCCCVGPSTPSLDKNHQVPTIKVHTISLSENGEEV

D(3) dopamine receptor = D(3) dopamine receptor (Homo sapiens, UniProt P35462); experiment: Binding affinity to human dopamine D3 receptor by competitive binding assay
Sequence of D(3) dopamine receptor (P35462 whole entry): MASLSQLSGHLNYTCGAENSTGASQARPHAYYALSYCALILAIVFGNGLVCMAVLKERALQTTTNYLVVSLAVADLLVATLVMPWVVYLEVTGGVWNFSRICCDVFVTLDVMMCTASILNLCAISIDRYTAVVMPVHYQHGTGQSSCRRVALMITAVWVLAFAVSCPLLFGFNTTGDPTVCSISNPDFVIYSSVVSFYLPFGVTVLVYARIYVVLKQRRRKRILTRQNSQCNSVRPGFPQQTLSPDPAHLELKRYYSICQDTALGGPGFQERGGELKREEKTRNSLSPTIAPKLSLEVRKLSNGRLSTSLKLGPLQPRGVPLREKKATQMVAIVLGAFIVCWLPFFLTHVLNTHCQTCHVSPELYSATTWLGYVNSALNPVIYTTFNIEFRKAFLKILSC

[3] = target: Serotonin (5-HT) receptor; experiment: Binding affinity to human 5HTB receptor by competitive binding assay; assay type: protein assay
[4] = target: 5-hydroxytryptamine receptor 2B (Homo sapiens, UniProt P41595); experiment: Binding affinity to human 5HT2B receptor by competitive binding assay
Sequence of 5-hydroxytryptamine receptor 2B (P41595 whole entry): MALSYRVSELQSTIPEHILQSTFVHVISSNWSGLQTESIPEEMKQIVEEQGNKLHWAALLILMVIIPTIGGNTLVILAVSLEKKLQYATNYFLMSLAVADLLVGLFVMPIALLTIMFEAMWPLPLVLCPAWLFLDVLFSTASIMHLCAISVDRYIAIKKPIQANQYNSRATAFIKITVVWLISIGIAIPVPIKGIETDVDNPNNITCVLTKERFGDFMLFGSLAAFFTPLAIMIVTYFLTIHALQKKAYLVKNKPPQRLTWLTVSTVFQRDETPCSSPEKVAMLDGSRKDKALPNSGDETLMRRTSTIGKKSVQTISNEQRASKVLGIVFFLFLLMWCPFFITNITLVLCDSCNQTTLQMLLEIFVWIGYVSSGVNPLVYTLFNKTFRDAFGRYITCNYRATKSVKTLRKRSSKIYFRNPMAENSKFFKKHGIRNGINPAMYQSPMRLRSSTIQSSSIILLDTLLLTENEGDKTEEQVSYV

[5] = target: T3, Muscarinic acetylcholine receptor M4 (Homo sapiens, UniProt P08173); experiment: Binding affinity to human muscarinic M4 receptor by competitive binding assay
T3 sequence (P08173 whole entry): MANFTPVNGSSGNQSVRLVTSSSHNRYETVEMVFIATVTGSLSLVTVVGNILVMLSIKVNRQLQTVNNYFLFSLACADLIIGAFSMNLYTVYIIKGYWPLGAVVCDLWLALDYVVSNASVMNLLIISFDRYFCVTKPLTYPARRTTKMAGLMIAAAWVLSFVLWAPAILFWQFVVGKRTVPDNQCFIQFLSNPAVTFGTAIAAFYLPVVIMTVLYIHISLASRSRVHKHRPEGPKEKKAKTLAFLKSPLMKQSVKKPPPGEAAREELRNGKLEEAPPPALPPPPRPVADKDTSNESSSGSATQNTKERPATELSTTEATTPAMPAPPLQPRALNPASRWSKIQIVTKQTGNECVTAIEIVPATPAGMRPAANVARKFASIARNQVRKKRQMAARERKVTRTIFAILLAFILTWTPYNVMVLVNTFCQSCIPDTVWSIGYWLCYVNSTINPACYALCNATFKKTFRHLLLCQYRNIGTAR

[6] = target: 5-hydroxytryptamine receptor 1B (Homo sapiens, UniProt P28222); experiment: Binding affinity to human 5HT1B receptor by competitive binding assay
Sequence of 5-hydroxytryptamine receptor 1B (P28222 whole entry): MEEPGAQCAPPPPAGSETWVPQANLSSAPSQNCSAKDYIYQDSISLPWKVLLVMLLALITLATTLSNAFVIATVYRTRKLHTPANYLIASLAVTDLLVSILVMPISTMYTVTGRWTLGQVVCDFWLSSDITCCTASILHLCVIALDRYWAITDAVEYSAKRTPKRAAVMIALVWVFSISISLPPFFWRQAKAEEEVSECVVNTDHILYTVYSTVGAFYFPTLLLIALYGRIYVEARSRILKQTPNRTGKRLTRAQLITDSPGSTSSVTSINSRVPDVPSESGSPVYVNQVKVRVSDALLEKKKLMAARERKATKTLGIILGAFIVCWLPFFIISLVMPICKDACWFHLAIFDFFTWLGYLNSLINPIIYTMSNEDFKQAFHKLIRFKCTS

Vasopressin V2 receptor = Vasopressin V2 receptor (Homo sapiens, UniProt P30518); experiment: Binding affinity to human V2R by competitive binding assay
Sequence of Vasopressin V2 receptor (P30518 whole entry): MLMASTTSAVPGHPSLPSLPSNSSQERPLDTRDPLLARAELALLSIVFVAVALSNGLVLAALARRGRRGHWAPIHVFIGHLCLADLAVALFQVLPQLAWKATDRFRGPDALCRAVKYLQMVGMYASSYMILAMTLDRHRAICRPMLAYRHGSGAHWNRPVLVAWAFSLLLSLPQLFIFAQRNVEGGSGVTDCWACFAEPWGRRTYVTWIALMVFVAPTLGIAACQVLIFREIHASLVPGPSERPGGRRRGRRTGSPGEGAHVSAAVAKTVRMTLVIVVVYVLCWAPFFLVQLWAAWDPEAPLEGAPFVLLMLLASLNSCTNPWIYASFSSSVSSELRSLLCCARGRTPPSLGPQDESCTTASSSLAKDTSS

Vasopressin V1a receptor = Vasopressin V1a receptor (Homo sapiens, UniProt P37288); experiment: Binding affinity to human V1AR by competitive binding assay
Sequence of Vasopressin V1a receptor (P37288 whole entry): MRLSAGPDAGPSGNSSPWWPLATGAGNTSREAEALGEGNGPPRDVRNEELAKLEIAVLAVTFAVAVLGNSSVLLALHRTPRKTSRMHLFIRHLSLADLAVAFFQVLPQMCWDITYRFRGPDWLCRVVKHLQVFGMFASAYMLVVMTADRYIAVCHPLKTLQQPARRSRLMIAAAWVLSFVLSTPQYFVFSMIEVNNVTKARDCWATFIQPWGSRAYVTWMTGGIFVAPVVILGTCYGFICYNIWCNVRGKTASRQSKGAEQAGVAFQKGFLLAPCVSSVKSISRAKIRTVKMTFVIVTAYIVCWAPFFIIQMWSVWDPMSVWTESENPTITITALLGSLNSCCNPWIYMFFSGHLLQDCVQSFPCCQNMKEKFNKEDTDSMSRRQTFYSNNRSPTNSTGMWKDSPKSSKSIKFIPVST

Oxytocin receptor = target: T4, Oxytocin receptor (Homo sapiens, UniProt P30559); experiment: Binding affinity to human OTR by competitive binding assay
T4 sequence (P30559 whole entry): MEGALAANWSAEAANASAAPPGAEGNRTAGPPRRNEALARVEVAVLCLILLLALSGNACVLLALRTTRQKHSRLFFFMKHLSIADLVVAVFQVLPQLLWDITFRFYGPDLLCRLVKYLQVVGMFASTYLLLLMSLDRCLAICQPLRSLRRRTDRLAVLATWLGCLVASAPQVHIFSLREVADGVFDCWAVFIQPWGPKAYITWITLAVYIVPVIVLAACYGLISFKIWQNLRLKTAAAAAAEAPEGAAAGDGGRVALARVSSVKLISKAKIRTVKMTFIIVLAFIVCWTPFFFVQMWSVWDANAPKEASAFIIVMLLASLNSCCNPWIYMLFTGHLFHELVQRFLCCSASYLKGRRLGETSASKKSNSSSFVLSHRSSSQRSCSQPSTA

[7] = Drug uptake in cynomolgus monkey choroid plexus at 5.5 mCi after 2 hrs in presence of unlabeled compound administered 45 mins before tracer challenge; assay type: ADME, Macaca fascicularis; details: in vivo
[8] = Drug uptake in cynomolgus monkey choroid plexus at 5.5 mCi after 2 hrs in presence of unlabeled compound administered 30 mins before tracer challenge; assay type: ADME, Macaca fascicularis; details: in vivo
[9] = Drug uptake in cynomolgus monkey middle cerebral artery of cerebral cortex at 5.5 mCi up to 15 mins; assay type: ADME, tissue-based, Macaca fascicularis; details: in vivo, 0.25 h
Brain [10] = experiment: Drug uptake in Sprague-Dawley rat brain at 280 uCi after 20 mins by PET analysis; assay type: ADME, tissue-based; details: in vivo
[11] = Lipophilicity, log P of the compound at pH 7.4; assay type: physicochemical; details: buffer
Brain [12] = experiment: Drug uptake in Sprague-Dawley rat brain at 280 uCi up to 20 mins by PET analysis; assay type: ADME, tissue-based; details: in vivo

CS(=O)(=O)N1CCC(Oc2ccc(CC(=O)N3CCC(N4C(=O)CCc5ccccc54)CC3)c(OCCF)c2)CC1
Ki (Vasopressin V1b receptor): > 10000 nM

Cl.O=C(Cc1ccc(OC2CCNCC2)cc1OCCF)N1CCC(N2C(=O)CCc3ccccc32)CC1
Ki [1]: 187 nM | Ki [2]: 80 nM | Ki (D(3) dopamine receptor): 6790 nM | Ki [3]: 1270 nM | Ki [4]: 500 nM | Ki [5]: 1270 nM | Ki [6]: 700 nM | Ki (Vasopressin V2 receptor): 8700 nM | Ki (Vasopressin V1b receptor): > 10000 nM | Ki (Vasopressin V1a receptor): 5600 nM | Ki (Oxytocin receptor): 15 nM

O=C(Cc1ccc(OC2CCNCC2)cc1OCC[18F])N1CCC(N2C(=O)CCc3ccccc32)CC1
Drug uptake [7]: Active | Drug uptake [8]: Active | Drug uptake [9]: Active | Drug uptake (Brain [10]): Not Active | logD [11]: 1.57 | Drug uptake (Brain [12]): Active
